Results on 66 compounds are retold here after PubChem BioAssay AID790 (SRMLSC, 2007).

Assay [1] in a line: growth inhibition of yeast vps1Δ mutant, dose response, S. cerevisiae, background strain comparison (AID 790). The conditions noted are these: S. cerevisiae vps1Δ mutant growth inhibition; measured here: background strain growth inhibition.
The subject of assay [2] is S. cerevisiae vps1Δ mutant growth inhibition. Described as above.

Calls of active or inactive are those of the source. How the calls were made is not given here.

Broadly, the IC50 is the concentration that gives 50% inhibition. Take `O=C(NCCc1ccccc1)C1CCN(S(=O)(=O)N2CCCC2)CC1`: the values for the IC50 in assay [1] and in assay [2] were above 10 µM and > 10 µM (inactive), respectively.
Turning to `Nc1ccc(Oc2ccc3nc(-c4ccccc4)c(-c4ccccc4)nc3c2)cc1`, the half-maximal inhibitory concentration (IC50) in assay [1] is 1.21 µM; in assay [2] it was 2.91 µM (inactive).
Turning to `CCCCSCCCNC(=O)Nc1cccc(OC)c1`, the half-inhibitory concentration (IC50) is above 10 µM in assay [1] and > 10 µM (inactive) in assay [2].
For `CC(C)COC(=O)c1ccc2c(c1O)C(=O)c1ccccc1C2=O` the same measures were above 10 µM and 22.9 µM.
As for `O=S(=O)(c1ccc(Cl)cc1)N1CCN(C2CCN(Cc3ccccc3)CC2)CC1`, the 50% inhibitory concentration (IC50) in assay [1] was above 10 µM; in assay [2], > 10 µM (inactive).
For `CCCCOc1ccc(-c2ncc(C(=O)O)c(C)n2)cc1`, in that order: above 10 µM and > 10 µM (inactive).
For `CC1CC(C)CN(CCOc2ccc(Cl)cc2Cl)C1` (configuration not stated), the IC50 in assay [1] was above 10 µM; in assay [2] it was > 10 µM (inactive).
Regarding `COc1ccc(C(=O)Nc2ccc(Cl)cc2C(=O)N2CCCC(C)C2)cc1` (configuration not stated), the half-inhibitory concentration (IC50) is above 10 µM in assay [1] and > 10 µM (inactive) in assay [2].
For `O=C(Nc1nc(-c2ccccn2)cs1)c1ncc(Cl)c(Cl)c1Cl`, in that order: 13.3 µM and 2.06 µM.
Take `COc1cc(CN2CCN(c3ccc(C)cc3)CC2)cc([N+](=O)[O-])c1O`: the values for the 50% inhibitory concentration (IC50) in assay [1] and in assay [2] were above 10 µM and > 10 µM (inactive), respectively.
For `CCOC(=O)C1=C(CSc2nc(-c3ccccc3)ccc2C#N)OC(N)=C(C#N)C1c1cccnc1` (configuration not stated), in that order: above 10 µM and > 10 µM (inactive).
For `CCCCS(=O)(=O)/C=C\C=C/S(=O)(=O)CCCC`, in that order: 13.9 µM and 12.1 µM.
As to `CCOC(=O)c1cccnc1SCc1cc(=O)n2ccccc2n1`, the figures for the IC50 in assay [1] and in assay [2] were above 10 µM and > 10 µM (inactive), respectively.
For `N#CC1=C2SCC(O)(c3ccccc3)N2C(=O)CC1c1ccccc1` (configuration not stated), in that order: above 10 µM and > 10 µM (inactive).
`O=C(OCn1ncc(Cl)c(Cl)c1=O)c1ccc(C(F)(F)F)cc1`: the IC50 is above 10 µM in assay [1] and > 10 µM (inactive) in assay [2].
For `COc1ccccc1N1CCN(Cc2ccccc2F)CC1`, in that order: above 10 µM and > 10 µM (inactive).
For `O=C(Cn1nnc(-c2ccc(S(=O)(=O)N3CCCC3)cc2)n1)NCC1CCCO1` (configuration not stated) the same measures were above 10 µM and > 10 µM (inactive).
Turning to `CCN(CC)c1ccc(CN2CC=C(c3ccc(F)cc3)CC2)cc1`, the half-inhibitory concentration (IC50) in assay [1] is 25.8 µM; in assay [2], > 10 µM (inactive).
On to `Cc1cc(Cl)cc(C)c1OCCCCN1CCOCC1`, for which the IC50 in assay [1] is above 10 µM; in assay [2], > 10 µM (inactive).
For `COc1ccc(CN(C(=O)Cc2cccs2)C(C(=O)NC2CCCC2)c2ccncc2)cc1` (configuration not stated) the same measures were above 10 µM and > 10 µM (inactive).
In the case of `Cc1ccc(CSc2nc3ccccc3cc2C=O)cc1`, the values for the IC50 in assay [1] and in assay [2] were 2.1 µM and 1.99 µM, respectively.
With `Nc1cc(N)c(OCC(F)(F)F)cc1OCC(F)(F)F`, the IC50 in assay [1] was above 10 µM; in assay [2], > 10 µM (inactive).
With `O=[N+]([O-])c1ccc(N2CCN(S(=O)(=O)c3ccc(Cl)cc3)CC2)cc1NCc1cccnc1`, the IC50 was above 10 µM in assay [1] and > 10 µM (inactive) in assay [2].
Regarding `O=C1OCC(CO)(CO)N=C1NNc1ccc(Cl)c(Cl)c1`, the values for the IC50 in assay [1] and in assay [2] were 3.35 µM and 2.43 µM, respectively.
Regarding `ON=Cc1cccn1-c1ccccc1`, the IC50 in assay [1] was above 10 µM; in assay [2], > 10 µM (inactive).
For `CCOC(=O)c1c(NC(=O)CN2CCCCC2)sc2c1CCC(C=O)=C2Cl` the same measures were above 10 µM and > 10 µM (inactive).
For `O=C(OCn1nnc2ccccc2c1=O)c1cn(-c2ccccc2)nc1-c1cccnc1`, the values for the IC50 in assay [1] and in assay [2] were above 10 µM and > 10 µM (inactive), respectively.
For `O=C(c1ccco1)N1CCN(c2ncnc3c2[nH]c2ccccc23)CC1` the same measures were above 10 µM and > 10 µM (inactive).
In the case of `Cc1c(C)c2cc(Cl)c(O)c(CN3CCN(C)CC3)c2oc1=O`, the values for the half-maximal inhibitory concentration (IC50) in assay [1] and in assay [2] were above 10 µM and > 10 µM (inactive), respectively.
Regarding `Cc1nnc(-c2cccc(Br)c2)c2cn(-c3ccccc3Cl)nc12`, the half-inhibitory concentration (IC50) in assay [1] was 25.9 µM; in assay [2], 2.01 µM.
For `Cc1ccc(S(=O)(=O)N2CCN(C3CCN(Cc4ccccc4)CC3)CC2)cc1`, in that order: above 10 µM and > 10 µM (inactive).
For `CCOC(=O)c1cc2c(ccn2C)n1CC(=O)N1CCN(c2ccccc2OC)CC1` the same measures were above 10 µM and > 10 µM (inactive).
Regarding `O=C(NC(C(=O)c1ccccc1)N1CCCCC1)c1ccccc1` (configuration not stated), the IC50 was above 10 µM in assay [1] and > 10 µM (inactive) in assay [2].
For `Cc1c(Cl)c([N+](=O)[O-])nn1Cc1ccc(C(=O)N/N=C\c2cccc(Br)c2)o1`, in that order: above 10 µM and below 0.049 µM.
For `CCOCCCNC(=O)C1CCN(C(=O)N(C)C)CC1` the same measures were above 10 µM and > 10 µM (inactive).
For `COc1ccccc1N1CCN(C2CCN(C(=O)c3cc(OC)c(OC)c(OC)c3)CC2)CC1`, in that order: above 10 µM and > 10 µM (inactive).
As for `c1ccc2c(c1)oc1c(Nc3ccc(CN4CCOCC4)cc3)ncnc12`, the 50% inhibitory concentration (IC50) in assay [1] is above 10 µM; in assay [2], > 10 µM (inactive).
As for `COCCCn1c2nc3ccccc3nc2c2c(=O)n(-c3ccccc3OC)cnc21`, the values for the half-inhibitory concentration (IC50) in assay [1] and in assay [2] were above 10 µM and > 10 µM (inactive), respectively.
Consider `COc1ccc(N2CCN(C(=O)CCNS(=O)(=O)c3ccc(Br)s3)CC2)cc1`, for which the IC50 in assay [1] was above 10 µM; in assay [2], > 10 µM (inactive).
For `O=C(NCC(c1cccnc1)N1CCN(c2ccccc2)CC1)c1ccc2c(c1)OCO2` (configuration not stated), in that order: above 10 µM and > 10 µM (inactive).
Take `CCOC(=O)NC(Nc1ccc(S(N)(=O)=O)cc1)(C(=O)OCC)C(F)(F)F` (configuration not stated): the values for the 50% inhibitory concentration (IC50) in assay [1] and in assay [2] were above 10 µM and > 10 µM (inactive), respectively.
Take `CC(C)c1ccc(C2C3CSCC=C3C(C#N)=C(N)C2(C#N)C#N)cc1` (configuration not stated): the half-maximal inhibitory concentration (IC50) was 0.843 µM in assay [1] and 1.77 µM (inactive) in assay [2].
Consider `CCOC(=O)Cc1c(C)c2ccc(N(CC)CC)cc2oc1=O`, for which the IC50 in assay [1] is above 10 µM; in assay [2], > 10 µM (inactive).
For `N#CC1=C(N)C(C#N)(C#N)C(c2cccnc2)C2CC(c3ccccc3)CC=C12` (configuration not stated) the same measures were 2.97 µM and 3.03 µM (inactive).
With `COc1ccc(Cl)cc1NC(=O)C(C)N1CCN(C/C=C/c2ccccc2)CC1` (configuration not stated), the values for the IC50 in assay [1] and in assay [2] were 15 µM and > 10 µM (inactive), respectively.
Turning to `Cc1ccc(NS(=O)(=O)c2cc(C(=O)N3CCOCC3)ccc2C)cc1`, the IC50 is above 10 µM in assay [1] and > 10 µM (inactive) in assay [2].
As to `COCCNc1cc(C)nc2c3c(C)cc(C)nc3nn12`, the concentration for half-maximal inhibition (IC50) in assay [1] is above 10 µM; in assay [2] it was > 10 µM (inactive).
Turning to `COc1ccc(C2C3=C(CCCC3=O)Nc3nc(-c4cc(OC)c(OC)c(OC)c4)nn32)cc1OC` (configuration not stated), the IC50 was above 10 µM in assay [1] and > 10 µM (inactive) in assay [2].
For `O=C(NCCSCc1ccc(Cl)cc1Cl)c1ccc(CN2CCOCC2)cc1`, in that order: above 10 µM and > 10 µM (inactive).
For `O=C(NC1CCCC1)C(c1ccsc1)N(C(=O)Cc1cccs1)c1ccc(F)cc1` (configuration not stated) the same measures were above 10 µM and > 10 µM (inactive).
For `CCCCCOc1ccc(Cl)cc1CN1CCOCC1` the same measures were above 10 µM and > 10 µM (inactive).
Consider `Clc1cc(Br)ccc1OCCOCCN1CCOCC1`, for which the IC50 in assay [1] is above 10 µM; in assay [2] it was > 10 µM (inactive).
For `COc1ccc(NC(=O)N(C2CCCCC2)C(C)c2cccnc2)c(OC)c1` (configuration not stated) the same measures were 16.7 µM and 16.5 µM.
On to `COc1ccc2nc(NCCCNC(=O)c3cc(OC)c(OC)c(OC)c3)c(C#N)cc2c1`, for which the results for the IC50 in assay [1] and in assay [2] were above 10 µM and > 10 µM (inactive), respectively.
Turning to `CCC(C)c1ccc(OCCCCN2CCOCC2)cc1` (configuration not stated), the IC50 in assay [1] is above 10 µM; in assay [2], > 10 µM (inactive).
For `COc1cccc(-c2cc(C(=O)N3CCN(C(c4ccccc4)c4ccccc4)CC3)no2)c1` the same measures were above 10 µM and > 10 µM (inactive).
For `Cc1cccc(-c2nnc(-c3cccc(NC(=O)Cc4cccs4)c3)o2)c1`, in that order: 15.2 µM and > 10 µM (inactive).
As for `COc1ccc2c(c1)C(C)=CC(C)(C)N2C(=O)CSc1nnc(-c2ccc(C)cc2)o1`, the half-inhibitory concentration (IC50) in assay [1] is above 10 µM; in assay [2] it was > 10 µM (inactive).
As to `O=C1NC2(Nc3ccccc31)C(=O)Nc1ccccc12` (configuration not stated), the IC50 in assay [1] was above 10 µM; in assay [2], > 10 µM (inactive).
For `CCc1cc2c(=O)c(Oc3ccccc3F)c(C)oc2c(CN(C)C)c1O` the same measures were above 10 µM and > 10 µM (inactive).
For `O=C(C1COc2ccccc2O1)N1CCN(Cc2ccc3c(c2)OCO3)CC1` (configuration not stated) the same measures were above 10 µM and > 10 µM (inactive).
For `O=C(N/N=C/c1ccc([N+](=O)[O-])o1)c1cc(-c2cccc(Br)c2)nc2ccccc12` the same measures were 4.65 µM and 0.918 µM.
For the compound `CCCCC1(CCCC)C(=O)NC(=Nc2cccc(C)c2)NC1=O`, the concentration for half-maximal inhibition (IC50) in assay [1] was above 10 µM; in assay [2], > 10 µM (inactive).
For `OC(Cn1ccnc1)c1ccc(Cl)cc1Cl` (configuration not stated) the same measures were above 10 µM and > 10 µM (inactive).
`CC1CN(CCCCOc2ccc(C(C)C)cc2)CC(C)O1` (configuration not stated): the IC50 in assay [1] is above 10 µM; in assay [2], > 10 µM (inactive).
For `O=C1c2ccccc2C(=O)c2c1oc(C(F)(F)F)c2C(=O)c1ccccc1` the same measures were 2.2 µM and 1.3 µM.
